Assay results published in US7763602B2, “Pyrrole derivatives as antimycobacterial compounds” (priority 2002, dated 2010).
≈ marks a conversion by molar mass, not a printed value. Read-outs that look alike come from different tables or passages of the source.

How the values were obtained:
[1] = test system: M. tuberculosis clinical isolates, resistant; assay: microbe, parasite or virus in culture; format: cell-based, Mycobacterium tuberculosis; settings: for MIC: Mycobacterium tuberculosis; for MIC (μg/ml) against Clinical isolates Resistant: Table I, agar dilution
[2] = test system: M. tuberculosis (Resistant strain); format: in vivo, mice; settings: Table V; for Mean Log10 No. of CFU Lung / Mean Log10 No. of CFU Spleen: 5 day/week for 4 week, treated 01 day post-infection; for Mean Log10 No. of reduction Lung / Mean Log10 No. of reduction Spleen: difference from early controls
[3] = read-out: MIC (μg/ml) against Clinical isolates Resistant

## Cc1c(CN2CCN(c3cccc(C(F)(F)F)c3)CC2)cc(-c2ccc(Cl)cc2)n1-c1ccc(Cl)cc1 [Compound No. 3, 1-{[1,5-bis(4-chlorophenyl)-2-methylpyrrol-3-yl]methyl}-4-(3-trifluoromethylphenyl)piperazine]
[1]; read-out: MIC (μg/ml) M. tuberculosis Resistant (n = 26)
  MIC: 0.25 to 0.5 µg/mL (≈ 0.459 to 0.918 µM)
[1]; [3]
  MIC: 0.25 to 0.5 µg/mL (≈ 0.459 to 0.918 µM)
[2]; 12.5 mg/kg
  Mean Log10 No. of CFU Lung: 2.98 ± 0.5
  Mean Log10 No. of CFU Spleen: 2.91 ± 0.4
  Mean Log10 No. of reduction Lung: 1.49
  Mean Log10 No. of reduction Spleen: 1.72
[2]; 25 mg/kg
  Mean Log10 No. of CFU Lung: 2.3 ± 0.17
  Mean Log10 No. of CFU Spleen: 2.2 ± 0.31
  Mean Log10 No. of reduction Lung: 2.17
  Mean Log10 No. of reduction Spleen: 2.43
[2]; 50 mg/kg
  Mean Log10 No. of CFU Lung: 1.99 ± 0.3
  Mean Log10 No. of CFU Spleen: 1.97 ± 0.4
  Mean Log10 No. of reduction Lung: 2.48
  Mean Log10 No. of reduction Spleen: 2.66

## NNC(=O)c1ccncc1 [Isoniazid, reference compound]
[2]; 12.5 mg/kg
  Mean Log10 No. of CFU Lung: 5.8 ± 0.4
  Mean Log10 No. of CFU Spleen: 5.79 ± 0.4
  Mean Log10 No. of reduction Lung: −1.33
  Mean Log10 No. of reduction Spleen: −1.16
[2]; 25 mg/kg
  Mean Log10 No. of CFU Lung: 5.12 ± 0.6
  Mean Log10 No. of CFU Spleen: 5.43 ± 0.5
  Mean Log10 No. of reduction Lung: −0.65
  Mean Log10 No. of reduction Spleen: −0.8
[2]; 50 mg/kg
  Mean Log10 No. of CFU Lung: 4.43 ± 0.5
  Mean Log10 No. of CFU Spleen: 4.7 ± 0.31
  Mean Log10 No. of reduction Lung: 0.04
  Mean Log10 No. of reduction Spleen: −0.07

## Cc1c(CN2CCN(c3cccc(C(F)(F)F)c3)CC2)cc(-c2ccc(Cl)cc2)n1-c1ccc(F)cc1F [compound 46, 1-{[1-(2,4-difluorophenyl)-5-(4-chlorophenyl)-2-methylpyrrol-3-yl]methyl}-4-(3-trifluoromethylphenyl)piperazine]
[1]; [3]
  MIC: 4 to 16 µg/mL (≈ 7.33 to 29.3 µM)

## Cc1c(CN2CCN(c3ccccn3)CC2)cc(-c2ccc(Cl)cc2)n1-c1ccc(F)cc1F [compound 47, 1-{[1-(2,4-difluorophenyl)-5-(4-chlorophenyl)-2-methylpyrrol-3-yl]methyl}-4-(2-pyridyl)piperazine]
[1]; [3]
  MIC: 1 to 4 µg/mL (≈ 2.09 to 8.35 µM)

## Cc1c(CN2CCN(C(c3ccccc3)c3ccccc3)CC2)cc(-c2ccc(Cl)cc2)n1-c1ccc(F)cc1F [compound 48, 1-{[1-(2,4-difluorophenyl)-5-(4-chlorophenyl)-2-methylpyrrol-3-yl]methyl}-4-(4-diphenylmethyl)piperazine]
[1]
  MIC (μg/ml) against Clinical isolates Resistant: >16.0 µg/mL

## Cc1c(CN2CCN(Cc3ccc4c(c3)OCO4)CC2)cc(-c2ccc(Cl)cc2)n1-c1ccc(F)cc1F [compound 50, 5-[(4-{[1-(2,4-difluorophenyl)-5-(4-chlorophenyl)-2-methylpyrrol-3-yl]-methyl}-piperazinyl)methyl]-2H-benzo[d]1,3-dioxolane]
[1]
  MIC (μg/ml) against Clinical isolates Resistant: 4.0 to 16.0 µg/mL

## Cc1c(CN2CCN(c3ccc(F)cc3)CC2)cc(-c2ccccc2)n1-c1ccc(F)cc1F [compound 51, 1-{[1-(2,4-difluorophenyl)-2-methyl-5-phenylpyrrol-3-yl]methyl}-4-(4-fluorophenyl)piperazine]
[1]; [3]
  MIC: > 16 µg/mL

## COc1ccccc1N1CCN(Cc2cc(-c3ccccc3)n(-c3ccc(F)cc3F)c2C)CC1 [compound 52, 1-{[1-(2,4-difluorophenyl)-2-methyl-5-phenylpyrrol-3-yl]methyl}-4-(2-methoxyphenyl)piperazine]
[1]; [3]
  MIC: 8 to 16 µg/mL (≈ 16.9 to 33.8 µM)

## Cc1c(CN2CCN(c3cccc(C(F)(F)F)c3)CC2)cc(-c2ccccc2)n1-c1ccc(F)cc1F [compound 53, 1-{[1-(2,4-difluorophenyl)-2-methyl-5-phenylpyrrol-3-yl]methyl}-4-(3-trifluoromethylphenyl)piperazine]
[1]; [3]
  MIC: > 16 µg/mL

## Cc1c(CN2CCN(c3ccccn3)CC2)cc(-c2ccccc2)n1-c1ccc(F)cc1F [compound 54, 1-{[1-(2,4-difluorophenyl)-2-methyl-5-phenylpyrrol-3-yl]methyl}-4-(2-pyridyl) piperazine]
[1]; [3]
  MIC: 4 µg/mL (≈ 9 µM)

## Cc1cc(CN2CCN(c3ccc(F)cc3)CC2)c(-c2ccccc2)n1-c1ccc(F)cc1F [compound 55, 1-{[1-(2,4-difluorophenyl)-5-methyl-2-phenylpyrrol-3-yl]methyl}-4-(4-fluorophenyl) piperazine]
[1]; [3]
  MIC: > 16 µg/mL

## COc1ccccc1N1CCN(Cc2cc(C)n(-c3ccc(F)cc3F)c2-c2ccccc2)CC1 [compound 56, 1-{[1-(2,4-difluorophenyl)-5-methyl-2-phenylpyrrol-3-yl]methyl}-4-(2-methoxyphenyl) piperazine]
[1]; [3]
  MIC: 8 to 16 µg/mL (≈ 16.9 to 33.8 µM)

## Cc1cc(CN2CCN(c3cccc(C(F)(F)F)c3)CC2)c(-c2ccccc2)n1-c1ccc(F)cc1F [compound 57, 1-{[1-(2,4-difluorophenyl)-5-methyl-2-phenylpyrrol-3-yl]methyl}-4-(3-trifluoromethylphenyl)piperazine]
[1]; [3]
  MIC: > 16 µg/mL

## Cc1cc(CN2CCN(c3ccccn3)CC2)c(-c2ccccc2)n1-c1ccc(F)cc1F [compound 58, 1-{[1-(2,4-difluorophenyl)-5-methyl-2-phenylpyrrol-3-yl]methyl}-4-(2-pyridyl) piperazine]
[1]; [3]
  MIC: 8 to 16 µg/mL (≈ 18 to 36 µM)

## COc1ccccc1N1CCN(Cc2cc(-c3ccc(Cl)cc3)n(-c3cccc4ccccc34)c2C)CC1 [compound 59, 1-{[5-(4-chlorophenyl)-2-methyl-1-naphthylpyrrol-3-yl]methyl}-4-(2-methoxyphenyl)piperazine]
[1]
  MIC (μg/ml) against Clinical isolates Resistant: >16.0 µg/mL

## Cc1c(CN2CCN(c3cccc(C(F)(F)F)c3)CC2)cc(-c2ccc(Cl)cc2)n1-c1cccc2ccccc12 [compound 60, 1-{[5-(4-chlorophenyl)-2-methyl-1-naphthylpyrrol-3-yl]methyl}-4-(3-trifluoromethylphenyl)piperazine]
[1]
  MIC (μg/ml) against Clinical isolates Resistant: 4.0 to 16.0 µg/mL

## Cc1c(CN2CCN(c3ccccn3)CC2)cc(-c2ccc(Cl)cc2)n1-c1cccc2ccccc12 [compound 61, 1-{[5-(4-chlorophenyl)-2-methyl-1-naphthylpyrrol-3-yl]methyl}-4-(2-pyridyl) piperazine]
[1]
  MIC (μg/ml) against Clinical isolates Resistant: 4.0 to 8.0 µg/mL

## Cc1c(CN2CCN(Cc3ccc4c(c3)OCO4)CC2)cc(-c2ccc(Cl)cc2)n1-c1cccc2ccccc12 [compound 62, 5-[(4-{[5-(4-chlorophenyl)-2-methyl-1-naphthylpyrrol-3-yl]methyl}-piperazinyl)methyl]-2H-benzo[d]1,3-dioxolane]
[1]
  MIC (μg/ml) against Clinical isolates Resistant: >16.0 µg/mL

## COc1ccccc1N1CCN(Cc2cc(C)n(-c3cccc4ccccc34)c2-c2ccc(Cl)cc2)CC1 [compound 63, 1-{[2-(4-chlorophenyl)-5-methyl-1-naphthylpyrrol-3-yl]methyl}-4-(2-methoxyphenyl)piperazine]
[1]
  MIC (μg/ml) against Clinical isolates Resistant: 4.0 to 16.0 µg/mL

## Cc1cc(CN2CCN(c3cccc(C(F)(F)F)c3)CC2)c(-c2ccc(Cl)cc2)n1-c1cccc2ccccc12 [compound 64, 1-{[2-(4-chlorophenyl)-5-methyl-1-naphthylpyrrol-3-yl]methyl}-4-(3-trifluoromethylphenyl)piperazine]
[1]
  MIC (μg/ml) against Clinical isolates Resistant: >16.0 µg/mL

## Cc1c(CN2CCS(=O)(=O)CC2)cc(-c2ccccc2)n1-c1ccccc1 [compound 88]
[1]
  MIC (μg/ml) against Clinical isolates Resistant: 2.0 to 8.0 µg/mL

## Cc1c(CN2CCSCC2)cc(-c2ccc(Cl)cc2)n1NC(=O)c1ccncc1 [compound 89, N-[5-(4-chlorophenyl)-2-methyl-3-(1,4-thiazaperhydroin-4-ylmethyl)pyrrolyl]-4-pyridylcarboxamide]
[1]
  MIC (μg/ml) against Clinical isolates Resistant: 4.0 to 8.0 µg/mL

## CCC(CO)n1c(C)c(CN2CCSCC2)c(CO)c1-c1ccccc1 (centres unmarked) [compound 90, 2-[3-(hydroxymethyl)-5-methyl-2-phenyl-4-(1,4-thiazaperhydroin-4-ylmethyl)-pyrrolyl]butan-1-ol]
[1]
  MIC (μg/ml) against Clinical isolates Resistant: >16.0 µg/mL
